Data as given in the supplement of paper PMC10307832.

How the values were obtained:
Assay in all cases: relative viability (nuclei count vs DMSO), 5 days (fraction); higher = more cells survive
[1] = compound: Cc1ccc(C(=O)N(CCCN)[C@@H](c2nc3cc(Cl)ccc3c(=O)n2Cc2ccccc2)C(C)C)cc1 [Ispinesib]
Summary of the method: (§1)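 Five library-drug doses spaced by √10 were pinned onto vehicle-anchored 1536-well plates of lung cancer cell lines that had been kept overnight at 37 °C. Cells went 5 days without medium change, then were fixed, permeabilised and Hoechst-stained together, imaged at 4× and counted by MetaXpress. Viability is the ratio of treated-well to vehicle-well nuclei, taken as a median over plates. Plates required control CV below 25% and at least one doubling.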

[2] = compound: C[C@]1(O)C[C@@H](c2nc(-c3ccc4ccc(-c5ccccc5)nc4c3)c3c(N)nccn32)C1 [Linsitinib]
Summary of the method: as §1

[3] = compound: C[C@]1(O)C[C@@H](c2nc(-c3ccc4ccc(-c5ccccc5)nc4c3)c3c(N)nccn32)C1 [Linsitinib] + COc1cccc2cc(-c3nc([C@H]4CC[C@H](C(=O)O)CC4)n4ncnc(N)c34)[nH]c12 [OSI-027] (partner 0.5 µM)
Summary of the method: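 The day after seeding in 1536-well plates, lung cancer cell lines were treated by pin tool with a single drug, or with a fixed anchor-drug dose together with five library-drug doses (not always all listed) in √10 steps. After 5 days, a combined fix-and-stain solution (final 0.05% Triton X-100, 1% formaldehyde, 1 ug/ml Hoechst) was added. Nuclei counted on 4× images gave relative viability as treated counts over vehicle counts, reported as the median of duplicate plates.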

| Cell Line | relative viability ([1]; 0.001 µM) | relative viability ([1]; 0.003162 µM) | relative viability ([1]; 0.01 µM) | relative viability ([1]; 0.03162 µM) | relative viability ([1]; 0.1 µM) | relative viability ([2]; 0.01 µM) | relative viability ([2]; 0.03162 µM) | relative viability ([2]; 0.1 µM) | relative viability ([2]; 0.3162 µM) | relative viability ([2]; 1 µM) | relative viability ([2]; 1 µM, anchor plate) | relative viability ([3]; first compound 0.01 µM) | relative viability ([3]; first compound 0.03162 µM) | relative viability ([3]; first compound 0.1 µM) | relative viability ([3]; first compound 0.3162 µM) | relative viability ([3]; first compound 1 µM) |
| --- | --- | --- | --- | --- | --- | --- | --- | --- | --- | --- | --- | --- | --- | --- | --- | --- |
| A549 | 1.1 | 0.983 | 1.31 | 0.568 | 0.109 | 0.929 | 0.978 | 0.963 | 0.729 | 0.615 | 0.601 |  |  |  |  |  |
| EMC-BAC-2 | 1.04 | 1.26 | 1.11 | 0.395 | 0.421 | 0.922 | 0.984 | 0.931 | 0.725 | 0.602 | 0.833 | 0.365 | 0.377 | 0.336 | 0.341 | 0.247 |
| ChaGo-K-1 | 1.05 | 1.06 | 1.12 | 0.91 | 0.354 | 1.04 | 0.962 | 1.02 | 0.681 | 0.882 |  | 0.613 | 0.627 | 0.573 | 0.319 | 0.522 |
| NCI-H2023 | 1.08 | 0.961 | 1.06 | 0.387 | 0.177 | 0.912 | 0.668 | 0.949 | 0.649 | 0.618 | 0.687 | 0.425 | 0.215 | 0.358 | 0.212 | 0.12 |
| EKVX | 0.996 | 0.993 | 1.07 | 0.856 | 0.573 | 0.99 | 0.991 | 0.999 | 0.739 | 0.832 | 1.01 | 0.706 | 0.723 | 0.687 | 0.467 | 0.607 |
| NCI-H2085 | 1.02 | 1.02 | 1.06 | 0.854 | 0.536 | 0.93 | 1 | 1.05 | 0.915 | 0.906 | 0.888 | 0.681 | 0.657 | 0.814 | 0.712 | 0.431 |
| NCI-H3122 | 1.09 | 1.06 | 1.01 | 0.779 | 0.172 | 0.99 | 0.947 | 1 | 0.575 | 1.02 | 1.01 | 0.994 | 0.868 | 1.03 |  | 0.487 |
| HCC-827 | 1.08 | 1.07 | 1.02 | 0.929 | 0.876 | 1.06 | 1.02 | 1.09 |  | 1.01 | 0.967 | 0.769 | 0.836 | 0.821 |  | 0.771 |
| HARA | 1.04 | 1.16 | 1.06 | 0.872 | 0.169 | 1.07 | 0.837 | 0.967 | 0.697 | 0.807 | 0.948 | 0.505 | 0.502 | 0.637 |  | 0.232 |
| NCI-H1299 | 1.05 | 1.05 | 1.07 | 1.05 | 0.461 | 1.01 | 0.999 | 1.02 | 0.918 | 1.02 | 0.977 |  |  |  |  |  |
| Calu-6 | 1.15 | 0.996 | 0.689 | 0.18 | 0.19 | 0.946 | 0.892 | 1.01 | 0.862 | 0.857 | 0.96 |  |  |  |  |  |
